Measurements from patent US20240316087A1, “Compositions And Methods For Inducing Apoptosis In Anaerobic Cells And Related Clinical Methods For Treating Cancer And Pathogenic Infections” (priority 2017, published 2024).
Where two headings read alike, the source gives them in different places.

Legend:
[1] = test system: caspase-9; assay: Caspase-9 levels in Salicinium-treated versus control CTC samples; format: cell-based, human; details: diverse CTCs from different cancer types
Source text: Additional studies evaluated caspase levels in CTC samples treated or untreated with Salicinium. Caspases are major executants of apoptosis. […] During apoptosis these pro-enzymes are converted into active enzymes which mediate apoptosis in part by degrading intracellular proteins, for example cytoskeletal proteins, causing profound morphological changes of cells. Caspase-3 is activated by upstream caspases (caspase-8, caspase-9 or caspase-10), and in turn Caspase-3 activates endonuclease CAD (caspase activated DNase). […] In apoptosis, ICAD is cut by caspase-3 and release CAD, followed by rapid fragmentation of DNA.
Caspase-9 levels were compared in control CTC samples and Salicinium-treated CTC samples according to conventional assay methods.

[2] = test system: Stage IV cancer
Experimental: A ten-year, multi-center cancer study was conducted wherein we recruited a total of 675 Stage IV cancer patients. These patients were treated and closely monitored through four participating medical and naturopathic clinics, with each clinic following standard therapeutic, monitoring and reporting protocols for each patient over a minimum study period of five years. The patients in these studies were all diagnosed by standard diagnostic methods (e.g., using tumor visualization, cytology, biopsy, blood assays for circulating tumor markers, etc.) at the start of the study as having Stage IV cancer, according to conventional diagnostic standards. Cancer types were grouped by primary cancer cytology/histochemistry, patient history and other standard criteria.
Of the 675 enrolled patients, 128 patients entered the study with diagnosed Stage IV breast cancer, 91 with Stage IV colon/rectal cancer, 34 with Stage IV head/neck cancer, 86 with Stage IV lung cancer, 32 with Stage IV non-Hodgkin's lymphoma (NHL), 28 with Stage IV melanoma, 36 with Stage IV ovarian cancer, 37 with Stage IV pancreatic cancer, 76 with Stage IV prostate cancer, 18 with Stage IV renal cancer, 23 with Stage IV sarcoma, and 34 with Stage IV uterine cancer.
Many of the enrolled subjects in this clinical study presented with Stage IV cancer that had persisted for many months, and in many cases years, following a prior Stage IV cancer diagnosis, and after having undergone one or more failed rounds of conventional oncotherapy (typically a combination of surgery, chemotherapy, radiation and/or hormonal therapy as indicated). These subjects are classified as “non-responsive” to conventional oncotherapy. A majority of the remaining study subjects enrolled in our study after an original Stage III or Stage IV cancer diagnosis, followed by conventional oncotherapy prior to the study, and presented at the time of study enrollment with disease progression to Stage IV cancer or with relapse of a prior, treated cancer. These subjects are classified as “treatment resistant” or “refractory” Stage IV cancer patients.
All patients remained throughout the study period in contact with medical providers who maintained regular monitoring of the subject's disease condition (with regular exams, including blood work testing for cancer markers, cytology, CT scans, PET scans, biopsy where indicated, and other diagnostic monitoring). Many of the study patients, while classified as having “treatment-resistant” Stage IV disease, nonetheless continued with some form of conventional oncotherapy (e.g., low dose chemotherapy) as recommended by their oncologist. […] About half of these subjects received conventional dose chemotherapy at some point, while the remainder received “low dose chemotherapy” (e.g., using a 10-15% dosing of a standard chemotherapeutic drug such as a taxane). […] Additionally, patients with breast cancer, ovarian cancer, uterine cancer and prostate cancer remained on any oncologist-prescribed hormonal therapy.
In certain cases, all 15 iv treatments were administered over a consecutive 15-day period, while in others the 15 iv treatments were scheduled over as much as a one-month period to accommodate patient scheduling factors.
All subjects were regularly examined for diagnostic cancer indicators, assessed according to standard methods.

[3] = test system: proliferating cancer and non-cancer cells and viral-infected cells; assay: Salicinium uptake into proliferating and viral-infected cells; format: cell-based
[4] = Stage IV Non-Hodgins Lymphoma, number of patients out of 32 studied
[5] = Stage IV breast cancer, number of patients out of 128 studied
[6] = Stage IV colon/rectal cancer, number of patients out of 91 studied
[7] = Stage IV head/neck cancer, number of patients out of 34 studied
[8] = Stage IV lung cancer, number of patients out of 86 studied
[9] = Stage IV melanoma, number of patients out of 29 studied
[10] = Stage IV non-Hodgkin's lymphoma
[11] = Stage IV ovarian cancer, number of patients out of 36 studied
[12] = Stage IV pancreatic cancer, number of patients out of 37 studied
[13] = Stage IV prostate cancer, number of patients out of 76 studied
[14] = Stage IV renal cancer, number of patients out of 18 studied
[15] = Stage IV sarcoma, number of patients out of 23 studied
[16] = Stage IV uterine cancer, number of patients out of 34 studied

4-(beta-D-allopyranosyloxy)-benzaldehyde [Salicinium]
caspase-9 levels in treated versus control CTC samples [1]: potent induction of elevated caspase-9 levels | therapeutic benefit (rates of stable disease, remission and survival) in smaller study groups ([2]; 51 additional patients: ALL, AML, astrocytoma, bladder, CLL, esophageal, gall bladder, stomach, glioblastoma, Hodgkin's, liver, mesothelioma, myeloma, testicular, thyroid, five years): significant therapeutic benefits | Complete Remission, patient status through end of five year study period [2, 4]: 6 | Not Surviving, patient status through end of five year study period [2, 4]: 15 | Partial Remission, patient status through end of five year study period [2, 4]: 5 | Stable Disease, patient status through end of five year study period [2, 4]: 6 | five-year survival rate ([2]; Stage IV breast cancer): 69% | patients with stable disease or in partial remission at end of five-year study ([2]; Stage IV breast cancer): 53% | increase in five-year survival expectancy versus NIH median ([2]; Stage IV breast cancer, from 16% (NIH median) to 69%): greater than four-fold increase | Complete Remission, patient status through end of five year study period [2, 5]: 21 | Not Surviving, patient status through end of five year study period [2, 5]: 39 | Partial Remission, patient status through end of five year study period [2, 5]: 30 | Stable Disease, patient status through end of five year study period [2, 5]: 38 | patients in complete remission at end of five-year study ([2]; Stage IV breast cancer, of 128 enrolled): 16% | patients in total remission ([2]; Stage IV colon/rectal cancer): 5% | patients surviving with stable disease or partial remission ([2]; Stage IV colon/rectal cancer): 56% | total five-year survival percentage ([2]; Stage IV colon/rectal cancer, 91 patients): 61% | survival versus NIH median survival ([2]; Stage IV colon/rectal cancer, NIH median 8-15% (average 11.5%)): more than five-times greater | Complete Remission, patient status through end of five year study period [2, 6]: 5 | Not Surviving, patient status through end of five year study period [2, 6]: 35 | Partial Remission, patient status through end of five year study period [2, 6]: 15 | Stable Disease, patient status through end of five year study period [2, 6]: 36 | five-year survival ([2]; Stage IV head/neck cancer): 53% | subjects in complete remission ([2]; Stage IV head/neck cancer): 12% | subjects stable or in partial remission ([2]; Stage IV head/neck cancer): 41% | Complete Remission, patient status through end of five year study period [2, 7]: 4 | Not Surviving, patient status through end of five year study period [2, 7]: 16 | Partial Remission, patient status through end of five year study period [2, 7]: 0 | Stable Disease, patient status through end of five year study period [2, 7]: 14 | five-year survival ([2]; Stage IV lung cancer): 62% | patients stable or in partial remission ([2]; Stage IV lung cancer): 56% | total remission rate ([2]; Stage IV lung cancer): 6% | increase in survival expectancy compared to NIH published data ([2]; Stage IV lung cancer, NIH median survival 50%): > 10% | Complete Remission, patient status through end of five year study period [2, 8]: 5 | Not Surviving, patient status through end of five year study period [2, 8]: 33 | Partial Remission, patient status through end of five year study period [2, 8]: 10 | Stable Disease, patient status through end of five year study period [2, 8]: 38 | five-year survival ([2]; Stage IV melanoma): 52% | increase in patient survival over median survival ([2]; Stage IV melanoma, NIH 15-20%, average 17.5%): about a three-fold increase | Complete Remission, patient status through end of five year study period [2, 9]: 0 | Not Surviving, patient status through end of five year study period [2, 9]: 14 | Partial Remission, patient status through end of five year study period [2, 9]: 8 | Stable Disease, patient status through end of five year study period [2, 9]: 7 | five-year survival [2, 10]: 53% | subjects in total remission [2, 10]: 19% | subjects stable or in partial remission [2, 10]: 34% | overall five-year survival rate ([2]; Stage IV ovarian cancer): 55% | subjects in complete remission at end of study ([2]; Stage IV ovarian cancer): More than 10% | survival versus NIH median survival ([2]; Stage IV ovarian cancer, NIH median 17%): more than three times | Complete Remission, patient status through end of five year study period [2, 11]: 4 | Not Surviving, patient status through end of five year study period [2, 11]: 16 | Partial Remission, patient status through end of five year study period [2, 11]: 5 | Stable Disease, patient status through end of five year study period [2, 11]: 11 | five-year survival rate ([2]; Stage IV pancreatic cancer): 46% | survival versus median survival expectancy ([2]; Stage IV pancreatic cancer, NIH median 4%): more than 11 times | Complete Remission, patient status through end of five year study period [2, 12]: 0 | Not Surviving, patient status through end of five year study period [2, 12]: 20 | Partial Remission, patient status through end of five year study period [2, 12]: 0 | Stable Disease, patient status through end of five year study period [2, 12]: 17 | five-year survival ([2]; Stage IV prostate cancer): 78% | patients in total disease remission ([2]; Stage IV prostate cancer): 20% | patients surviving in stable or partial remission status ([2]; Stage IV prostate cancer): 58% | survival versus NIH published median survival ([2]; Stage IV prostate cancer, NIH median 33%): more than double | Complete Remission, patient status through end of five year study period [2, 13]: 15 | Not Surviving, patient status through end of five year study period [2, 13]: 16 | Partial Remission, patient status through end of five year study period [2, 13]: 23 | Stable Disease, patient status through end of five year study period [2, 13]: 22 | five-year survival ([2]; Stage IV renal cancer): 56% | subjects in total remission ([2]; Stage IV renal cancer): 17% | subjects stable or in partial remission ([2]; Stage IV renal cancer): 39% | Complete Remission, patient status through end of five year study period [2, 14]: 3 | Not Surviving, patient status through end of five year study period [2, 14]: 8 | Partial Remission, patient status through end of five year study period [2, 14]: 0 | Stable Disease, patient status through end of five year study period [2, 14]: 7 | five-year survival ([2]; Stage IV sarcoma): 48% | subjects in total remission ([2]; Stage IV sarcoma): 9% | subjects stable or in partial remission ([2]; Stage IV sarcoma): 39% | Complete Remission, patient status through end of five year study period [2, 15]: 2 | Not Surviving, patient status through end of five year study period [2, 15]: 12 | Partial Remission, patient status through end of five year study period [2, 15]: 2 | Stable Disease, patient status through end of five year study period [2, 15]: 7 | five-year survival ([2]; Stage IV uterine cancer): 47% | subjects in total remission ([2]; Stage IV uterine cancer): 5% | subjects stable or in partial remission ([2]; Stage IV uterine cancer): 41% | Complete Remission, patient status through end of five year study period [2, 16]: 2 | Not Surviving, patient status through end of five year study period [2, 16]: 18 | Partial Remission, patient status through end of five year study period [2, 16]: 4 | Stable Disease, patient status through end of five year study period [2, 16]: 10 | increase of Salicinium uptake compared to healthy cells ([3]; often): 2-5 times | increase of Salicinium uptake compared to healthy cells ([3]; routinely, GLUT-mediated and other glycome transport): 50-100% | increase of Salicinium uptake compared to healthy cells ([3]; up to): 10-15 times
